In PubChem BioAssay AID1845208 (Molecular Pharmacology Branch, DTP, NCI, 2023):

System: NCI-H196 SCLC complex tumor spheroid viability
Assay: Anticancer human tumor NCI-H196 cell line growth inhibition;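 further: spheroids exposed to compounds for 7 days before readout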;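 on viability, T/C: 100% = DMSO vehicle control wells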
Conditions: for IC50: curve of first compound; for viability, T/C: stronger effect = lower value
Summary of the method: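 Complex tumor spheroids combined malignant cells with endothelial cells and mesenchymal stem cells. DNA-damaging drugs and DNA repair inhibitors were tested alone and in combination, at half-log dilutions down from clinical Cmax (top 10 microM if Cmax unknown), 0.25% DMSO final.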

[1] = second compound 0.003 µM, first compound 0.0949 µM
[2] = second compound 0.003 µM, first compound 0.3 µM
[3] = second compound 0.003 µM, first compound 0.949 µM
[4] = second compound 0.003 µM, first compound 3 µM

O=C(c1cc(Cc2n[nH]c(=O)c3ccccc23)ccc1F)N1CCN(C(=O)C2CC2)CC1 + CC[C@@]1(O)C(=O)OCc2c1cc1n(c2=O)Cc2cc3c(CN(C)C)c(O)ccc3nc2-1
IC50 (second compound 0.003 µM): > 30 µM | IC50 (second compound 0.00949 µM): > 30 µM | IC50 (second compound 0.03 µM): > 30 µM | IC50 (second compound 0.0949 µM): > 30 µM | IC50 (second compound 0.3 µM): > 30 µM | viability, T/C [1]: 95.4% | viability, T/C [2]: 95.2% | viability, T/C [3]: 88.3% | viability, T/C [4]: 88.2% | viability, T/C (second compound 0.003 µM, first compound 9.49 µM): 88.6% | viability, T/C (second compound 0.003 µM, first compound 30 µM): 85.6% | viability, T/C (second compound 0.00949 µM, first compound 0.0949 µM): 97.7% | viability, T/C (second compound 0.00949 µM, first compound 0.3 µM): 91.3% | viability, T/C (second compound 0.00949 µM, first compound 0.949 µM): 98.7% | viability, T/C (second compound 0.00949 µM, first compound 3 µM): 95.9% | viability, T/C (second compound 0.00949 µM, first compound 9.49 µM): 94.3% | viability, T/C (second compound 0.00949 µM, first compound 30 µM): 96.6% | viability, T/C (second compound 0.03 µM, first compound 0.0949 µM): 100% | viability, T/C (second compound 0.03 µM, first compound 0.3 µM): 98% | viability, T/C (second compound 0.03 µM, first compound 0.949 µM): 101% | viability, T/C (second compound 0.03 µM, first compound 3 µM): 103% | viability, T/C (second compound 0.03 µM, first compound 9.49 µM): 98.2% | viability, T/C (second compound 0.03 µM, first compound 30 µM): 92% | viability, T/C (second compound 0.0949 µM, first compound 0.0949 µM): 96.3% | viability, T/C (second compound 0.0949 µM, first compound 0.3 µM): 107% | viability, T/C (second compound 0.0949 µM, first compound 0.949 µM): 99.6% | viability, T/C (second compound 0.0949 µM, first compound 3 µM): 99.6% | viability, T/C (second compound 0.0949 µM, first compound 9.49 µM): 102% | viability, T/C (second compound 0.0949 µM, first compound 30 µM): 97.2% | viability, T/C (second compound 0.3 µM, first compound 0.0949 µM): 86.8% | viability, T/C (second compound 0.3 µM, first compound 0.3 µM): 90.9% | viability, T/C (second compound 0.3 µM, first compound 0.949 µM): 88.4% | viability, T/C (second compound 0.3 µM, first compound 3 µM): 93.9% | viability, T/C (second compound 0.3 µM, first compound 9.49 µM): 82.5% | viability, T/C (second compound 0.3 µM, first compound 30 µM): 83.1%

Cn1ncnc1[C@H]1c2n[nH]c(=O)c3cc(F)cc(c23)N[C@@H]1c1ccc(F)cc1 + COc1cc2c(cc1O)CCNC21CSC2c3c(OC(C)=O)c(C)c4c(c3C(COC1=O)N1C(O)C3Cc5cc(C)c(OC)c(O)c5C(C21)N3C)OCO4
IC50 (second compound 30 pM): > 3 µM | IC50 (second compound 94.9 pM): > 3 µM | IC50 (second compound 0.0003 µM): > 3 µM | IC50 (second compound 0.000949 µM): > 3 µM | IC50 (second compound 0.003 µM): < 0.00949 µM | viability, T/C (second compound 30 pM, first compound 0.00949 µM): 100% | viability, T/C (second compound 30 pM, first compound 0.03 µM): 99.3% | viability, T/C (second compound 30 pM, first compound 0.0949 µM): 98.6% | viability, T/C (second compound 30 pM, first compound 0.3 µM): 97% | viability, T/C (second compound 30 pM, first compound 0.949 µM): 94.6% | viability, T/C (second compound 30 pM, first compound 3 µM): 92.4% | viability, T/C (second compound 94.9 pM, first compound 0.00949 µM): 99.3% | viability, T/C (second compound 94.9 pM, first compound 0.03 µM): 99.3% | viability, T/C (second compound 94.9 pM, first compound 0.0949 µM): 98.8% | viability, T/C (second compound 94.9 pM, first compound 0.3 µM): 98.6% | viability, T/C (second compound 94.9 pM, first compound 0.949 µM): 92.7% | viability, T/C (second compound 94.9 pM, first compound 3 µM): 99% | viability, T/C (second compound 0.0003 µM, first compound 0.00949 µM): 102% | viability, T/C (second compound 0.0003 µM, first compound 0.03 µM): 97.5% | viability, T/C (second compound 0.0003 µM, first compound 0.0949 µM): 101% | viability, T/C (second compound 0.0003 µM, first compound 0.3 µM): 93.5% | viability, T/C (second compound 0.0003 µM, first compound 0.949 µM): 92.2% | viability, T/C (second compound 0.0003 µM, first compound 3 µM): 87.7% | viability, T/C (second compound 0.000949 µM, first compound 0.00949 µM): 92.3% | viability, T/C (second compound 0.000949 µM, first compound 0.03 µM): 85.1% | viability, T/C (second compound 0.000949 µM, first compound 0.0949 µM): 82% | viability, T/C (second compound 0.000949 µM, first compound 0.3 µM): 92.4% | viability, T/C (second compound 0.000949 µM, first compound 0.949 µM): 87% | viability, T/C (second compound 0.000949 µM, first compound 3 µM): 71.2% | viability, T/C (second compound 0.003 µM, first compound 0.00949 µM): 6.21% | viability, T/C (second compound 0.003 µM, first compound 0.03 µM): 7.26% | viability, T/C [1]: 4.58% | viability, T/C [2]: 3.69% | viability, T/C [3]: 2.82% | viability, T/C [4]: 1.01%

CC1COCCN1c1cc(-c2ccnn2C)c2ccnc(-c3ccn[nH]3)c2n1 (stereo not given) + Cn1nnc2c(C(N)=O)ncn2c1=O
IC50 (second compound 1 µM): 2.82 µM | IC50 (second compound 3.16 µM): 2.15 µM | IC50 (second compound 10 µM): 7.34 µM | IC50 (second compound 31.6 µM): 4.44 µM | IC50 (second compound 100 µM): 3.49 µM | viability, T/C (second compound 1 µM, first compound 0.0316 µM): 84.8% | viability, T/C (second compound 1 µM, first compound 0.1 µM): 77.5% | viability, T/C (second compound 1 µM, first compound 0.316 µM): 61.2% | viability, T/C (second compound 1 µM, first compound 1 µM): 59.5% | viability, T/C (second compound 1 µM, first compound 3.16 µM): 48.1% | viability, T/C (second compound 1 µM, first compound 10 µM): 44.4% | viability, T/C (second compound 3.16 µM, first compound 0.0316 µM): 92.6% | viability, T/C (second compound 3.16 µM, first compound 0.1 µM): 77.7% | viability, T/C (second compound 3.16 µM, first compound 0.316 µM): 62.2% | viability, T/C (second compound 3.16 µM, first compound 1 µM): 56.7% | viability, T/C (second compound 3.16 µM, first compound 3.16 µM): 44.1% | viability, T/C (second compound 3.16 µM, first compound 10 µM): 47.3% | viability, T/C (second compound 10 µM, first compound 0.0316 µM): 98.3% | viability, T/C (second compound 10 µM, first compound 0.1 µM): 85.4% | viability, T/C (second compound 10 µM, first compound 0.316 µM): 75.7% | viability, T/C (second compound 10 µM, first compound 1 µM): 58.2% | viability, T/C (second compound 10 µM, first compound 3.16 µM): 54% | viability, T/C (second compound 10 µM, first compound 10 µM): 48.8% | viability, T/C (second compound 31.6 µM, first compound 0.0316 µM): 95.2% | viability, T/C (second compound 31.6 µM, first compound 0.1 µM): 85.5% | viability, T/C (second compound 31.6 µM, first compound 0.316 µM): 71.4% | viability, T/C (second compound 31.6 µM, first compound 1 µM): 59.6% | viability, T/C (second compound 31.6 µM, first compound 3.16 µM): 51.6% | viability, T/C (second compound 31.6 µM, first compound 10 µM): 46.6% | viability, T/C (second compound 100 µM, first compound 0.0316 µM): 90.3% | viability, T/C (second compound 100 µM, first compound 0.1 µM): 76.8% | viability, T/C (second compound 100 µM, first compound 0.316 µM): 69.9% | viability, T/C (second compound 100 µM, first compound 1 µM): 57.9% | viability, T/C (second compound 100 µM, first compound 3.16 µM): 49.7% | viability, T/C (second compound 100 µM, first compound 10 µM): 44.8%
